Measurements as given in PubChem BioAssay AID190 (DTP/NCI, 2004).
Where “and” joins values, the source holds several entries; their conditions need not be identical. Equal values may be shown once. Inconclusive results and toxic doses are left out.

Tested on: AKR/Lw mice, AKR lymphoma ip, median survival T/C
Test: NCI In Vivo Anticancer Drug Screen. Data for tumor model Lymphoma AKR (Transplanted) (intraperitoneal) in AKR/Lw mice
Settings: endpoint: median survival time, higher = longer survival
Method: The antitumor activity of compounds was measured in mice bearing transplantable tumors. Survival or tumor size were measured and the results are expressed as the measurement made in the treated group (T) divided by the measurement made in the vehicle treated control group (C). The tumor model used in this assay is Lymphoma AKR (Transplanted) (intraperitoneal) in AKR/Lw mice

[1] = dose: 100.0 mg/kg/injection, schedule: Q01DX001 (ip), vehicle: saline
[2] = dose: 200.0 mg/kg/injection, schedule: Q01DX001 (ip), vehicle: saline
[3] = dose: 400.0 mg/kg/injection, schedule: Q01DX001 (ip), vehicle: saline

`N[C@@H](Cc1ccc(N(CCCl)CCCl)cc1)C(=O)O` was tested, and the T/C (dose: 0.25 mg/kg/injection, schedule: Q04DX008 (ip), vehicle: Klucel (hydroxypropylcellulose) (HPC)) was 102 % of control, the T/C (dose: 0.5 mg/kg/injection, schedule: Q04DX008 (ip), vehicle: Klucel (hydroxypropylcellulose) (HPC)) was 94 % of control and the T/C (dose: 0.75 mg/kg/injection, schedule: Q04DX008 (ip), vehicle: Klucel (hydroxypropylcellulose) (HPC)) was 119 % of control. For the same compound, the T/C (dose: 1.0 mg/kg/injection, schedule: Q04DX004 (ip), vehicle: Klucel (hydroxypropylcellulose) (HPC)) was 123 % of control, the T/C (dose: 1.0 mg/kg/injection, schedule: Q04DX004 (ip), vehicle: saline) was 115 % of control and the T/C (dose: 1.0 mg/kg/injection, schedule: Q04DX008 (ip), vehicle: Klucel (hydroxypropylcellulose) (HPC)) was 100 % of control. For the same compound, the T/C (dose: 2.0 mg/kg/injection, schedule: Q04DX004 (ip), vehicle: Klucel (hydroxypropylcellulose) (HPC)) was 158 % of control, the T/C (dose: 2.0 mg/kg/injection, schedule: Q04DX004 (ip), vehicle: saline) was 107 % of control and the T/C (dose: 2.0 mg/kg/injection, schedule: Q04DX008 (ip), vehicle: Klucel (hydroxypropylcellulose) (HPC)) was 116 % of control. The T/C (dose: 2.5 mg/kg/injection, schedule: Q01DX001 (ip), vehicle: Klucel (hydroxypropylcellulose) (HPC)) was 107 % of control, the T/C (dose: 3.9 mg/kg/injection, schedule: Q04DX004 (ip), vehicle: Klucel (hydroxypropylcellulose) (HPC)) was 179 % of control and the T/C (dose: 3.9 mg/kg/injection, schedule: Q04DX004 (ip), vehicle: saline) was 307 % of control. The T/C (dose: 6.0 mg/kg/injection, schedule: Q04DX004 (ip), vehicle: Klucel (hydroxypropylcellulose) (HPC)) was 200 % of control, the T/C (dose: 6.0 mg/kg/injection, schedule: Q04DX004 (ip), vehicle: saline) was 164 % of control and the T/C (dose: 7.7 mg/kg/injection, schedule: Q04DX008 (ip), vehicle: Klucel (hydroxypropylcellulose) (HPC)) was 100 % of control. For the same compound, the T/C (dose: 9.0 mg/kg/injection, schedule: Q01DX001 (ip), vehicle: Klucel (hydroxypropylcellulose) (HPC)) was 150 % of control, the T/C (dose: 12.0 mg/kg/injection, schedule: Q01DX001 (ip), vehicle: Klucel (hydroxypropylcellulose) (HPC)) was 102 % of control and the T/C (dose: 16.0 mg/kg/injection, schedule: Q01DX001 (ip), vehicle: Klucel (hydroxypropylcellulose) (HPC)) was 92 % of control.
With `CC(=O)NNC(=O)c1ccccn1` the T/C (dose: 3.1 mg/kg/injection, schedule: Q04DX003 (ip), vehicle: Klucel (hydroxypropylcellulose) (HPC)) was 92 % of control, the T/C (dose: 6.2 mg/kg/injection, schedule: Q01DX009 (ip), vehicle: Klucel (hydroxypropylcellulose) (HPC)) was 100 % of control and the T/C (dose: 6.2 mg/kg/injection, schedule: Q04DX003 (ip), vehicle: Klucel (hydroxypropylcellulose) (HPC)) was 88 % of control and 102 % of control. The T/C (dose: 12.5 mg/kg/injection, schedule: Q01DX009 (ip), vehicle: Klucel (hydroxypropylcellulose) (HPC)) was 112 % of control and 120 % of control, the T/C (dose: 12.5 mg/kg/injection, schedule: Q04DX003 (ip), vehicle: Klucel (hydroxypropylcellulose) (HPC)) was 89 % of control and 96 % of control and the T/C (dose: 25.0 mg/kg/injection, schedule: Q01DX001 (ip), vehicle: saline) was 97 % of control and 108 % of control. For the same compound, the T/C (dose: 25.0 mg/kg/injection, schedule: Q01DX009 (ip), vehicle: Klucel (hydroxypropylcellulose) (HPC)) was 109 % of control and 114 % of control, the T/C (dose: 25.0 mg/kg/injection, schedule: Q01DX009 (ip), vehicle: saline) was 87 % of control and 91 % of control and the T/C (dose: 25.0 mg/kg/injection, schedule: Q04DX003 (ip), vehicle: Klucel (hydroxypropylcellulose) (HPC)) was 97 % of control and 105 % of control and 112 % of control. For the same compound, the T/C (dose: 31.25 mg/kg/injection, schedule: Q01DX001 (ip), vehicle: Klucel (hydroxypropylcellulose) (HPC)) was 94 % of control, the T/C (dose: 37.5 mg/kg/injection, schedule: Q01DX009 (ip), vehicle: saline) was 98 % of control and the T/C (dose: 50.0 mg/kg/injection, schedule: Q01DX001 (ip), vehicle: Klucel (hydroxypropylcellulose) (HPC)) was 92 % of control. The T/C (dose: 50.0 mg/kg/injection, schedule: Q01DX001 (ip), vehicle: saline) was 95 % of control and 107 % of control, the T/C (dose: 50.0 mg/kg/injection, schedule: Q01DX009 (ip), vehicle: Klucel (hydroxypropylcellulose) (HPC)) was 120 % of control and the T/C (dose: 50.0 mg/kg/injection, schedule: Q01DX009 (ip), vehicle: saline) was 101 % of control and 104 % of control. The T/C (dose: 50.0 mg/kg/injection, schedule: Q04DX003 (ip), vehicle: Klucel (hydroxypropylcellulose) (HPC)) was 104 % of control and 109 % of control and 110 % of control, the T/C (dose: 62.5 mg/kg/injection, schedule: Q01DX001 (ip), vehicle: Klucel (hydroxypropylcellulose) (HPC)) was 94 % of control and the T/C (dose: 75.0 mg/kg/injection, schedule: Q01DX009 (ip), vehicle: saline) was 96 % of control. The T/C (dose: 100.0 mg/kg/injection, schedule: Q01DX001 (ip), vehicle: Klucel (hydroxypropylcellulose) (HPC)) was 114 % of control, the T/C [1] was 102 % of control and 115 % of control and 116 % of control and the T/C (dose: 100.0 mg/kg/injection, schedule: Q01DX009 (ip), vehicle: Klucel (hydroxypropylcellulose) (HPC)) was 123 % of control. The T/C (dose: 100.0 mg/kg/injection, schedule: Q01DX009 (ip), vehicle: saline) was 107 % of control, the T/C (dose: 100.0 mg/kg/injection, schedule: Q04DX003 (ip), vehicle: other) was 117 % of control and 123 % of control and the T/C (dose: 100.0 mg/kg/injection, schedule: Q04DX003 (ip), vehicle: saline) was 116 % of control. The T/C (dose: 150.0 mg/kg/injection, schedule: Q01DX001 (ip), vehicle: Klucel (hydroxypropylcellulose) (HPC)) was 94 % of control, the T/C (dose: 150.0 mg/kg/injection, schedule: Q01DX009 (ip), vehicle: saline) was 105 % of control and the T/C (dose: 200.0 mg/kg/injection, schedule: Q01DX001 (ip), vehicle: Klucel (hydroxypropylcellulose) (HPC)) was 95 % of control. The T/C [2] was 97 % of control and 107 % of control, the T/C (dose: 200.0 mg/kg/injection, schedule: Q04DX003 (ip), vehicle: Klucel (hydroxypropylcellulose) (HPC)) was 87 % of control and 94 % of control and the T/C (dose: 200.0 mg/kg/injection, schedule: Q04DX003 (ip), vehicle: other) was 107 % of control. For the same compound, the T/C (dose: 200.0 mg/kg/injection, schedule: Q04DX003 (ip), vehicle: saline) was 116 % of control, the T/C (dose: 250.0 mg/kg/injection, schedule: Q01DX001 (ip), vehicle: Klucel (hydroxypropylcellulose) (HPC)) was 107 % of control and the T/C (dose: 400.0 mg/kg/injection, schedule: Q01DX001 (ip), vehicle: Klucel (hydroxypropylcellulose) (HPC)) was 100 % of control.
`COc1ccc(/C=C2\CCC3C(=O)CCCC3(C)C2=O)cc1` (configuration not stated) was tested, and the T/C [1] was 90 % of control, the T/C [2] was 100 % of control and the T/C [3] was 97 % of control.
With `CC12CCCC(=O)C1CC/C(=C\c1ccco1)C2=O` (configuration not stated) the T/C [1] was 109 % of control, the T/C [2] was 100 % of control and the T/C [3] was 100 % of control.
In the case of `CN(C)c1nc(N(C)C)nc(N(C)C)n1`, the T/C (dose: 80.0 mg/kg/injection, schedule: Q04DX003 (ip), vehicle: Klucel (hydroxypropylcellulose) (HPC)) was 111 % of control and the T/C (dose: 160.0 mg/kg/injection, schedule: Q04DX003 (ip), vehicle: Klucel (hydroxypropylcellulose) (HPC)) was 108 % of control.
In the case of `COc1cc2c(c3c1c(=O)c1ccccc1n3C)C=CC(C)(C)O2`, the T/C (dose: 16.0 mg/kg/injection, schedule: Q01DX010 (ip), vehicle: Klucel (hydroxypropylcellulose) (HPC)) was 106 % of control, the T/C (dose: 31.25 mg/kg/injection, schedule: Q01DX010 (ip), vehicle: Klucel (hydroxypropylcellulose) (HPC)) was 103 % of control and the T/C (dose: 36.0 mg/kg/injection, schedule: Q03HX024 (ip), vehicle: Klucel (hydroxypropylcellulose) (HPC)) was 120 % of control. The T/C (dose: 62.5 mg/kg/injection, schedule: Q01DX010 (ip), vehicle: Klucel (hydroxypropylcellulose) (HPC)) was 122 % of control, the T/C (dose: 62.5 mg/kg/injection, schedule: Q03HX024 (ip), vehicle: Klucel (hydroxypropylcellulose) (HPC)) was 115 % of control and the T/C (dose: 125.0 mg/kg/injection, schedule: Q03HX024 (ip), vehicle: Klucel (hydroxypropylcellulose) (HPC)) was 115 % of control. For the same compound, the T/C (dose: 360.0 mg/kg/injection, schedule: Q04DX003 (ip), vehicle: Klucel (hydroxypropylcellulose) (HPC)) was 122 % of control.
In the case of `COc1cccc2c1C(=O)c1c(O)c3c(c(O)c1C2=O)C[C@@](O)(C(=O)CO)C[C@@H]3OC1CC(N)C(O)C(C)O1` (some centres not stated), the T/C (dose: 0.12 mg/kg/injection, schedule: Q01DX006 (sc), vehicle: saline) was 110 % of control, the T/C (dose: 0.25 mg/kg/injection, schedule: Q01DX006 (ip), vehicle: saline) was 107 % of control and the T/C (dose: 0.25 mg/kg/injection, schedule: Q01DX006 (sc), vehicle: saline) was 97 % of control. For the same compound, the T/C (dose: 0.5 mg/kg/injection, schedule: Q01DX006 (ip), vehicle: saline) was 115 % of control, the T/C (dose: 0.5 mg/kg/injection, schedule: Q01DX006 (sc), vehicle: saline) was 109 % of control (2×) and 110 % of control and the T/C (dose: 0.5 mg/kg/injection, schedule: Q04DX003 (sc), vehicle: saline) was 105 % of control. The T/C (dose: 0.9 mg/kg/injection, schedule: Q04DX003 (sc), vehicle: saline) was 105 % of control, the T/C (dose: 1.0 mg/kg/injection, schedule: Q01DX006 (ip), vehicle: saline) was 115 % of control and the T/C (dose: 1.0 mg/kg/injection, schedule: Q01DX006 (sc), vehicle: saline) was 117 % of control. For the same compound, the T/C (dose: 1.5 mg/kg/injection, schedule: Q01DX006 (sc), vehicle: saline) was 110 % of control and 114 % of control (2×) and the T/C (dose: 2.6 mg/kg/injection, schedule: Q04DX003 (sc), vehicle: saline) was 97 % of control.
